In PubChem BioAssay (NCI):
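Following 48 hours of exposure in 96-well plates, responses at five concentrations were used to interpolate endpoints linearly. GI50 is the concentration that inhibits growth by half. TGI marks complete inhibition of growth.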

Legend:
Experiment in all cases: growth of human tumour cells (NCI), 48 h
786-0 renal = test system: 786-0 renal
A549 NSCLC = test system: A549 NSCLC
HCT-15 colon = test system: HCT-15 colon
HL-60(TB) leukemia = test system: HL-60(TB) leukemia
HS 578T breast = test system: HS 578T breast
M14 melanoma = test system: M14 melanoma
NCI-H226 lung = test system: NCI-H226 lung
NCI-H23 lung = test system: NCI-H23 lung
NCI-H460 lung = test system: NCI-H460 lung
NCI-H522 lung = test system: NCI-H522 lung
SNB-19 CNS = test system: SNB-19 CNS
SW-620 colon = test system: SW-620 colon

| SMILES | TGI (786-0 renal) [µM] | TGI (A549 NSCLC) [µM] | TGI (HCT-15 colon) [µM] | TGI (HL-60(TB) leukemia) [µM] | TGI (HS 578T breast) [µM] | TGI (M14 melanoma) [µM] | TGI (NCI-H226 lung) [µM] | TGI (NCI-H23 lung) [µM] | TGI (NCI-H460 lung) [µM] | TGI (NCI-H522 lung) [µM] | TGI (SNB-19 CNS) [µM] | TGI (SW-620 colon) [µM] | GI50 (A549 NSCLC) [µM] | GI50 (HCT-15 colon) [µM] | GI50 (HL-60(TB) leukemia) [µM] | GI50 (HS 578T breast) [µM] | GI50 (NCI-H226 lung) [µM] | GI50 (NCI-H23 lung) [µM] | GI50 (NCI-H522 lung) [µM] |
| --- | --- | --- | --- | --- | --- | --- | --- | --- | --- | --- | --- | --- | --- | --- | --- | --- | --- | --- | --- |
| O=c1cc(-c2cccnc2)[nH]c2cc3c(cc12)OCO3 | > 100 | > 100 | > 64.3 | 31.9 | 69.6 | > 100 | > 89.6 | > 53.5 | > 100 | > 21.6 | 79.6 | > 100 |  |  |  |  |  |  |  |
| CC1C(C#N)(C#N)C(C#N)=C(N)C1(Cl)[N+](=O)[O-] (centres undefined) | 18.1 | 54.6 | 13.1 | 5.16 | 46.1 | 22.1 | 31.6 | 35.3 |  | 6.1 | 35 | 4.46 |  |  |  |  |  |  |  |
| CC(=O)OC(Cc1c(O)c2c(C)cccc2oc1=O)C(C)(C)O (centres undefined) | > 100 | > 100 | > 100 | > 100 | > 100 | > 100 | > 100 | > 100 | > 100 | > 100 | > 100 | > 100 |  |  |  |  |  |  |  |
| C=C1C[C@H](O)[C@H](Br)C(C)(C)C12CCC(C)(Cl)C(Br)C2 (some centres undefined) | 15.4 | 9.12 | 19.3 | 13.4 | 23.6 | 13.3 | 12.7 | 7.98 | 9.95 | 15 | 10.4 | 20.4 |  |  |  |  |  |  |  |
| C[C@@H]1CC[C@@]2(OC1)O[C@H]1C[C@H]3[C@@H]4CC[C@H]5C[C@@H](OC6OC(CO)C(OC7OC(CO)C(O)C(OC8OCC(O)C(O)C8O)C7OC7OC(CO)C(O)C(O)C7O)C(O)C6O)[C@H](O)C[C@]5(C)[C@H]4CC[C@]3(C)[C@H]1[C@@H]2C (some centres undefined) |  | 10.9 | > 33.9 | 9.54 | 15.9 | 32 | 23.9 | 7.39 | 4.17 | 2.05 | 27.1 | 21 |  |  |  |  |  |  |  |
| O=c1cc(-c2ccccc2)[nH]c2nccn12 |  | > 10 | > 10 | > 10 | > 10 | > 10 | > 10 | > 10 | > 10 | > 10 | > 10 | > 10 |  |  |  |  |  |  |  |
| O=C(c1ccccc1)N1C(=S)N(c2ccccn2)C(=Nc2ccccc2)C1=Nc1ccccc1 | > 82.8 | > 100 | 14.9 | 14.1 | > 61.8 | > 100 | > 100 | > 36.5 | > 70.6 | 5.61 | > 96.2 | > 65.6 |  |  |  |  |  |  |  |
| CN(C)c1ccc(C=C2C(=O)NC(=S)NC2=O)c2ccccc12 | > 100 | > 100 | > 100 | > 100 | 71.8 | > 100 | > 100 | > 100 | > 100 | 37.5 | > 100 | > 100 |  |  |  |  |  |  |  |
| CCOC(=O)c1c(NC(=S)Nc2ccccc2)sc2c1CCOC2 | > 100 | > 100 | > 100 | > 100 | > 100 | > 100 | > 100 | > 100 | > 100 | > 100 | > 100 | > 100 |  |  |  |  |  |  |  |
| O=C(CC(Cl)=C(Cl)Cl)c1ccccc1 | 48 | > 100 | 70.6 | > 100 | > 100 | > 100 | 72.5 | > 100 | > 100 | 69.6 | > 100 | > 100 |  |  |  |  |  |  |  |
| CCOC(=O)NN(C(=O)OCC)c1c(C)cc(C)cc1C | > 100 | > 100 | > 100 | > 100 | > 100 | > 100 | > 100 | > 100 | > 100 | > 100 | > 100 | > 100 |  |  |  |  |  |  |  |
| O=C(c1cc2c(c3ccccc13)NC1(CCCCC1)N=C2C(F)(F)F)C(F)(F)F | 14.1 | 16.3 | 16.7 | 9.89 | 29.3 | 18.1 | 11 | 12.5 | 10.9 | 6.95 | 18.7 | 18.7 |  |  |  |  |  |  |  |
| N#Cc1c(O)c(/C=N/c2ncccn2)c(=O)n2c1[nH]c1ccccc12 | > 100 | > 100 | > 100 | > 100 | > 100 | > 100 | > 100 | > 100 | > 100 | > 100 | > 100 | > 100 |  |  |  |  |  |  |  |
| CC(=O)Oc1ccc2c3c1O[C@H]1[C@H](O)CC[C@@]4(O)[C@@H](C2)N(C)CC[C@]314 | > 100 | > 100 | > 100 | > 100 | > 100 | > 100 | > 100 | > 100 |  | > 100 | > 100 | > 100 |  |  |  |  |  |  |  |
| O=C1CC(=O)NC(=NNS(=O)(=O)c2ccc(Cl)cc2)N1 | > 100 | > 100 | > 100 | > 100 | > 100 | > 100 | > 100 | > 100 | > 100 | > 100 | > 100 | > 100 |  |  |  |  |  |  |  |
| NS(=O)(=O)c1ccc(/C=C/c2ccc(O)cc2)cc1 | 89.6 | 55.4 | > 100 | > 100 | > 100 | > 100 | 33.1 | 60.1 | > 100 | 50.2 | > 100 | > 100 | 13.9 | 24.6 | 4.35 | 28.9 | 11.1 | 16.9 | 13.8 |
| CC(C)N(C(C)C)S(=O)(=O)C[C@]12CC[C@H](CC13OCC(CS(=O)(=O)c1ccccc1)O3)C2(C)C (some centres undefined) | > 100 | > 100 | > 100 | 61.2 | > 100 | > 100 | > 100 | > 100 | > 100 | > 100 | > 100 | > 100 |  |  |  |  |  |  |  |
| C#CC1(O)CCCCCCCCC2(CCCCCCCC1)OCCO2 | 31.4 | 26.8 | 39.1 | 40.9 | 38.9 | 33.9 | 34 | 33.9 | 44.2 | 6.42 | 33 | 34.7 |  |  |  |  |  |  |  |
